Experimental data reported in the NIST ThermoML archive (doi:10.1016/j.jct.2006.10.017).

Legend:
[1] = 101 kPa, Liquid
[2] = refractive index (Na D-line) (dimensionless); conditions: 101.33 kPa, Liquid
[3] = refractive index (Na D-line) (dimensionless); xn = mol fraction of the nth substance listed; conditions: 101 kPa, Liquid
[4] = xn = mol fraction of the nth substance listed; conditions: 101 kPa, Liquid

CCO [ethanol]
Conditions | mass density, 293.15 K [kg/m3] | mass density, 298.15 K [kg/m3] | mass density, 303.15 K [kg/m3] | refractive index, 293.15 K | refractive index, 298.15 K | refractive index, 303.15 K | speed of sound, 293.15 K [m/s] | speed of sound, 298.15 K [m/s] | speed of sound, 303.15 K [m/s]
[1] | 789.3 | 785.1 | 780.7 | – | – | – | 1160 | 1143 | 1127
[2] | – | – | – | 1.36138 | 1.35929 | 1.35725 | – | – | –

CCCCCCn1cc[n+](C)c1.F[P-](F)(F)(F)(F)F [1-hexyl-3-methylimidazolium hexafluorophosphate]
Conditions | mass density, 293.15 K [kg/m3] | mass density, 298.15 K [kg/m3] | mass density, 303.15 K [kg/m3] | refractive index, 293.15 K | refractive index, 298.15 K | refractive index, 303.15 K | speed of sound, 293.15 K [m/s] | speed of sound, 298.15 K [m/s] | speed of sound, 303.15 K [m/s]
[1] | 1297.9 | 1293.7 | 1289.6 | – | – | – | 1438 | 1424 | 1411
[2] | – | – | – | 1.41923 | 1.41787 | 1.41643 | – | – | –

CCCCCCCC[n+]1ccn(C)c1.F[P-](F)(F)(F)(F)F [1-octyl-3-methylimidazolium hexafluorophosphate]
Conditions | mass density, 293.15 K [kg/m3] | mass density, 298.15 K [kg/m3] | mass density, 303.15 K [kg/m3] | refractive index, 293.15 K | refractive index, 298.15 K | refractive index, 303.15 K | speed of sound, 293.15 K [m/s] | speed of sound, 298.15 K [m/s] | speed of sound, 303.15 K [m/s]
[1] | 1239.6 | 1235.7 | 1231.9 | – | – | – | 1424 | 1408 | 1393
[2] | – | – | – | 1.4244 | 1.42302 | 1.42165 | – | – | –

CCCCn1cc[n+](C)c1.F[P-](F)(F)(F)(F)F [1-butyl-3-methylimidazolium hexafluorophosphate]
Conditions | mass density, 293.15 K [kg/m3] | mass density, 298.15 K [kg/m3] | mass density, 303.15 K [kg/m3] | refractive index, 293.15 K | refractive index, 298.15 K | refractive index, 303.15 K | speed of sound, 293.15 K [m/s] | speed of sound, 298.15 K [m/s] | speed of sound, 303.15 K [m/s]
[1] | 1371.6 | 1367.3 | 1363 | – | – | – | 1455 | 1443 | 1431
[2] | – | – | – | 1.41069 | 1.40937 | 1.40808 | – | – | –

CCCCn1cc[n+](C)c1.COS(=O)(=O)[O-] [1-butyl-3-methylimidazolium methyl sulfate]
Conditions | mass density, 293.15 K [kg/m3] | mass density, 298.15 K [kg/m3] | mass density, 303.15 K [kg/m3] | refractive index, 293.15 K | refractive index, 298.15 K | refractive index, 303.15 K | speed of sound, 293.15 K [m/s] | speed of sound, 298.15 K [m/s] | speed of sound, 303.15 K [m/s]
[1] | 1215.6 | 1212.2 | 1208.8 | – | – | – | 1671 | 1658 | 1645
[2] | – | – | – | 1.48077 | 1.47942 | 1.47806 | – | – | –

CCCCn1cc[n+](C)c1.COS(=O)(=O)[O-] [1-butyl-3-methylimidazolium methyl sulfate] + CCO
Conditions | mass density, 293.15 K [kg/m3] | mass density, 298.15 K [kg/m3] | mass density, 303.15 K [kg/m3] | refractive index, 293.15 K | refractive index, 298.15 K | refractive index, 303.15 K | speed of sound, 293.15 K [m/s] | speed of sound, 298.15 K [m/s] | speed of sound, 303.15 K [m/s]
[3], x1 = 0.0501 | – | – | – | 1.38149 | 1.3797 | 1.37885 | – | – | –
[3], x1 = 0.1015 | – | – | – | 1.39827 | 1.39667 | 1.39541 | – | – | –
[3], x1 = 0.1961 | – | – | – | 1.42043 | 1.41884 | 1.41656 | – | – | –
[3], x1 = 0.299 | – | – | – | 1.43625 | 1.43478 | 1.43335 | – | – | –
[3], x1 = 0.3914 | – | – | – | 1.44713 | 1.4456 | 1.44408 | – | – | –
[3], x1 = 0.5025 | – | – | – | 1.45714 | 1.45586 | 1.45509 | – | – | –
[3], x1 = 0.6073 | – | – | – | 1.46429 | 1.46284 | 1.46136 | – | – | –
[3], x1 = 0.6982 | – | – | – | 1.46926 | 1.4678 | 1.46639 | – | – | –
[3], x1 = 0.8002 | – | – | – | 1.47391 | 1.47249 | 1.47111 | – | – | –
[3], x1 = 0.8992 | – | – | – | 1.47757 | 1.47623 | 1.47485 | – | – | –
[3], x1 = 0.9498 | – | – | – | 1.47901 | 1.47766 | 1.47622 | – | – | –
[3], x1 = 1 | – | – | – | 1.48077 | 1.47942 | 1.47806 | – | – | –
[4], x1 = 0.0501 | 860.2 | 856.4 | 852.2 | – | – | – | 1218 | 1203 | 1189
[4], x1 = 0.1015 | 916.9 | 913 | 909 | – | – | – | 1277 | 1262 | 1248
[4], x1 = 0.1961 | 993.7 | 990 | 986.2 | – | – | – | 1358 | 1343 | 1324
[4], x1 = 0.299 | 1052.2 | 1048.6 | 1044.9 | – | – | – | 1425 | 1412 | 1392
[4], x1 = 0.3914 | 1091.3 | 1087.8 | 1084.1 | – | – | – | 1479 | 1466 | 1446
[4], x1 = 0.5025 | 1127.3 | 1123.7 | 1120.1 | – | – | – | 1538 | 1525 | 1508
[4], x1 = 0.6073 | 1153.5 | 1150 | 1146.5 | – | – | – | 1576 | 1563 | 1553
[4], x1 = 0.6982 | 1172 | 1168.5 | 1165 | – | – | – | 1598 | 1584 | 1574
[4], x1 = 0.8002 | 1189.2 | 1185.6 | 1182.2 | – | – | – | 1626 | 1612 | 1602
[4], x1 = 0.8992 | 1203.1 | 1199.7 | 1196.3 | – | – | – | 1650 | 1636 | 1626
[4], x1 = 0.9498 | 1209.5 | 1206.1 | 1202.7 | – | – | – | 1659 | 1645 | 1633
[4], x1 = 1 | 1215.6 | 1212.2 | 1208.8 | – | – | – | 1671 | 1658 | 1645

CCO [ethanol] + CCCCCCCC[n+]1ccn(C)c1.F[P-](F)(F)(F)(F)F
x2 = 0
Conditions | mass density, 293.15 K [kg/m3] | mass density, 298.15 K [kg/m3] | mass density, 303.15 K [kg/m3] | refractive index, 293.15 K | refractive index, 298.15 K | refractive index, 303.15 K | speed of sound, 293.15 K [m/s] | speed of sound, 298.15 K [m/s] | speed of sound, 303.15 K [m/s]
[3] | – | – | – | 1.36138 | 1.35929 | 1.35725 | – | – | –
[4] | 789.3 | 785.1 | 780.7 | – | – | – | 1160 | 1143 | 1127

COS(=O)(=O)[O-].Cn1cc[n+](C)c1 [1,3-dimethylimidazolium methylsulfate]
Conditions | mass density, 293.15 K [kg/m3] | mass density, 298.15 K [kg/m3] | mass density, 303.15 K [kg/m3] | refractive index, 293.15 K | refractive index, 298.15 K | refractive index, 303.15 K | speed of sound, 293.15 K [m/s] | speed of sound, 298.15 K [m/s] | speed of sound, 303.15 K [m/s]
[1] | 1330.9 | 1327.2 | 1323.7 | – | – | – | 1826 | 1813 | 1801
[2] | – | – | – | 1.48392 | 1.4827 | 1.48129 | – | – | –
